From US20240109881A1, “Heteroaryl Compounds as Ligand Directed Degraders of IRAK4” (Bristol-Myers Squibb Company, priority 2022, published 2024) come the findings set out here.

The assay has as its target T1, IRAK4 (Homo sapiens, UniProt Q9NWZ3).
T1 construct: endogenous in cells; host or cells: THP-1 cells
T1 sequence (Q9NWZ3 1-460): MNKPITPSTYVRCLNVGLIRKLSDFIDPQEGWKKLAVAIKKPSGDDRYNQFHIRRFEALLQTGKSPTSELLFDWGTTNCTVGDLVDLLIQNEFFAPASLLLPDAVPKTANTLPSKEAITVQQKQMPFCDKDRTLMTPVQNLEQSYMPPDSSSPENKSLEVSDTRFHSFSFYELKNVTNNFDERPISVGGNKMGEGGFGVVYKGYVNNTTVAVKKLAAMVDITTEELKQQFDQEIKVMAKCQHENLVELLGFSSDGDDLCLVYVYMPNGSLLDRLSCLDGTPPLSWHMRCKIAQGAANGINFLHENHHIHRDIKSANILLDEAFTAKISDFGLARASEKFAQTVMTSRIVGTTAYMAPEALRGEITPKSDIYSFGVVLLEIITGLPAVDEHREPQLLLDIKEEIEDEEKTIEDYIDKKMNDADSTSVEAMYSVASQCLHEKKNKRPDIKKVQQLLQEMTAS
Description: LVL THP1 HTRF (THP1 Homogeneous Time Resolved Fluorescence). It is filed as cell-based. Conditions: THP1 cells, 18 h incubation with compound; for DC50: read-out: LVL THP1 HTRF EC50. The gist of the method:
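THP-1 cells in phenol red-free RPMI with 10% FBS were dosed with compound (20 nL in DMSO) for 18 h at 37° C. After 2 h lysis, IRAK4 was detected with anti-IRAK4-d2/anti-IRAK4-K HTRF antibodies for 18 h at room temperature and read at 665/615 nm; a parallel CTG plate was run.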
In general terms: Time-resolved FRET reads energy transfer from a long-lived donor to a nearby acceptor.

As to `COc1cc([C@@]2(C)CCC(=O)NC2=O)ccc1N1CCN(CC[C@H]2CC[C@H](c3cn(-c4cnc(-n5ncc6cc(C#N)c(N)nc65)cc4N[C@H](C)C#N)nn3)CC2)C[C@H]1C` (single isomer, unassigned) [P-304], the “LVL THP1 HTRF YMIN” value turned out to be 5.0% and the DC50 was determined as 11.9 nM.

Consider `C[C@H](C#N)Nc1cc(-n2ncc3cc(C#N)cnc32)ncc1-n1cc([C@H]2CC[C@H](CCN3CCN(c4ccc(N5CCC(=O)NC5=O)cn4)CC3)CC2)nn1` [P-371], for which the “LVL THP1 HTRF YMIN” value is recorded as 4.1% and the DC50 came to 8.7 nM. As to `C[C@H](C#N)Nc1cc(-n2ncc3cc(C#N)c(N)nc32)ncc1-n1cc(C2CCC(CCN3[C@H](C)CN(c4ccc(C5CCC(=O)NC5=O)cc4)C[C@H]3C)CC2)nn1` (stereo partly shown) [P-220], the “LVL THP1 HTRF YMIN” value is given as 4.3% and the DC50 worked out at 6 nM. Consider `C[C@H](C#N)Nc1cc(-n2ncc3cc(C#N)cnc32)ncc1-n1cc([C@H]2CC[C@H](CCN3CCC(c4ccc(N5CCC(=O)NC5=O)cc4)C(F)(F)C3)CC2)nn1` (single isomer, unassigned) [P-420], for which the “LVL THP1 HTRF YMIN” value is on record as 1.7% and the DC50 was found to be 26.2 nM.

Consider `C[C@H](C#N)Nc1cc(-n2ncc3cc(C#N)cnc32)ncc1-n1cc([C@H]2CC[C@H](CCN3CCN(c4ccc(N5CCC(=O)NC5=O)cn4)[C@@H](C)C3)CC2)nn1` [P-357], for which the “LVL THP1 HTRF YMIN” value amounted to 26.7% and the DC50 worked out at 179 nM. For `C[C@H](C#N)Nc1cc(-n2ncc3cc(C#N)cnc32)ncc1-n1cc([C@H]2CC[C@H](CCN3CCN(c4ccc5c(N6CCC(=O)NC6=O)nn(C)c5c4)[C@H](C)C3)CC2)nn1` [P-498], the “LVL THP1 HTRF YMIN” value was −2.8% and the DC50 worked out at 2 nM. On the same counts, the results for `C[C@H](C#N)Nc1cc(-n2ncc3cc(C#N)cnc32)ncc1-n1cc([C@H]2CC[C@H](CCN3CCN(c4ccc(N5CCC(=O)NC5=O)cc4)C[C@H]3C)CC2)nn1` [P-459] are −0.5% and 2.5 nM. On the same counts, the results for `C[C@H](C#N)Nc1cc(-n2ncc3cc(C#N)cnc32)ncc1-n1cc([C@H]2CC[C@H](CCN3CCC(c4ccc(N5CCC(=O)NC5=O)cn4)CC3)CC2)nn1` [P-345] are 87.0% and 1000 nM.

As to `C[C@H](C#N)Nc1cc(-n2ncc3cc(C#N)cnc32)ncc1-n1cc([C@H]2CC[C@H](CCN3CC4(CC(c5ccc(N6CCC(=O)NC6=O)c(Cl)c5)C4)C3)CC2)nn1` [P-432], the “LVL THP1 HTRF YMIN” value is 1.8% and the DC50 was 1.3 nM. Consider `C[C@H]1CN(c2ccc([C@@]3(C)CCC(=O)NC3=O)cc2)C[C@H](C)N1CCC1CCC(c2cn(-c3cnc(-n4ncc5cc(C#N)cnc54)cc3NC3(C#N)CC3)nn2)CC1` (stereo partly shown) [P-232], for which the “LVL THP1 HTRF YMIN” value is 7.1% and the DC50 amounted to 65 nM. Turning to `C[C@H](C#N)Nc1cc(-n2ncc3cc(C#N)cnc32)ncc1-n1cc([C@H]2CC[C@H](CCN3CCN(c4ncc(N5CCC(=O)NC5=O)cn4)[C@H](C)C3)CC2)nn1` [P-438], the “LVL THP1 HTRF YMIN” value turned out to be 2.2% and the DC50 stood at 3.4 nM. For the compound `C[C@H](C#N)Nc1cc(-n2ncc3cc(C#N)cnc32)ncc1-n1cc([C@H]2CC[C@H](CCN3CCN(c4ccc([C@@]5(C)CCC(=O)NC5=O)nc4)[C@@H](C)C3)CC2)nn1` (single isomer, unassigned) [P-290], the “LVL THP1 HTRF YMIN” value was 33.6% and the DC50 was determined as 252 nM. As to `C[C@H](C#N)Nc1cc(-n2ncc3cc(C#N)cnc32)ncc1-n1cc([C@H]2CC[C@H](CCN3CCN(c4ccc5c(N6CCC(=O)NC6=O)nn(C)c5c4)CC3)CC2)nn1` [P-369], the “LVL THP1 HTRF YMIN” value worked out at 3.0% and the DC50 was 2.2 nM.

With `C[C@H](C#N)Nc1cc(-n2ncc3cc(C#N)cnc32)ncc1-n1cc([C@H]2CC[C@H](CCN3CCC(O)(c4ccc(C5CCC(=O)NC5=O)cc4)CC3)CC2)nn1` (stereo partly shown) [P-352], the “LVL THP1 HTRF YMIN” value was found to be 2.1% and the DC50 was determined as 3.8 nM. On the same counts, the results for `C[C@H](C#N)Nc1cc(-n2ncc3cc(C#N)cnc32)ncc1-n1cc([C@H]2CC[C@H](CCN3CC[C@H]4[C@@H]3CCN4c3ccc(C4CCC(=O)NC4=O)cc3)CC2)nn1` (single isomer, unassigned) [P-325] are 1.6% and 3.8 nM.

Consider `C[C@H](C#N)Nc1cc(-n2ncc3cc(C#N)cnc32)ncc1-n1cc([C@H]2CC[C@H](CCN3CCC(F)(c4ccc([C@@]5(C)CCC(=O)NC5=O)cc4)CC3)CC2)nn1` (single isomer, unassigned) [P-424], for which the “LVL THP1 HTRF YMIN” value is recorded as 5.3% and the DC50 came to 1.9 nM. As to `C[C@H](C#N)Nc1cc(-n2ncc3cc(C#N)cnc32)ncc1C(=O)N[C@H]1CC[C@H](CCN2CC3(CC(c4ccc(N5CCC(=O)NC5=O)cc4)C3)C2)CC1` [P-433], the “LVL THP1 HTRF YMIN” value came out at 37.6% and the DC50 was 700 nM. Take `C[C@H](C#N)Nc1cc(-n2ncc3cc(C#N)cnc32)ncc1-n1cc([C@H]2CC[C@H](CCN3CC[C@H]4[C@@H]3CCN4c3ccc(N4CCC(=O)NC4=O)c(F)c3)CC2)nn1` (single isomer, unassigned) [P-480]: the “LVL THP1 HTRF YMIN” value is on record as 0.8% and the DC50 stood at 26 nM. As for `C[C@H](C#N)Nc1cc(-n2ncc3cc(C#N)cnc32)ncc1-c1cc([C@H]2CC[C@H](CCN3CCN(c4ccc(C5CCC(=O)NC5=O)cc4)CC3)CC2)no1` (stereo partly shown) [P-211], the DC50 was determined as 3 nM.

On to `COc1cc(N2CCN(CC[C@H]3CC[C@H](c4cn(-c5cnc(-n6ncc7cc(C#N)cnc76)cc5N[C@H](C)C#N)nn4)CC3)CC2)ccc1N1CCC(=O)NC1=O` [P-443], for which the “LVL THP1 HTRF YMIN” value is given as −0.6% and the DC50 was 4.5 nM. In the case of `C[C@H](C#N)Nc1cc(-n2ncc3cc(C#N)c(N)nc32)ncc1-n1cc([C@H]2CC[C@H](CCN3CCN(c4ccc(N5CCC(=O)NC5=O)cn4)[C@H](C)C3)CC2)nn1` [P-463], the “LVL THP1 HTRF YMIN” value is reported as −3.4% and the DC50 is 0.1 nM. On the same counts, the results for `N#Cc1cnc2c(cnn2-c2cc(N[C@H]3CCC[C@H]3O)c(-n3cc([C@H]4CC[C@H](CCN5CCN(c6ccc(C7CCC(=O)NC7=O)cc6)CC5)CC4)nn3)cn2)c1` (stereo partly shown) [P-402] are 1.9% and 3.3 nM. On the same counts, the results for `C[C@H](C#N)Nc1cc(-n2ncc3cc(C#N)cnc32)ncc1-n1cc(C2CCC(CCN3C[C@@H](C)N(c4ccc([C@@]5(C)CCC(=O)NC5=O)cc4)C[C@@H]3C)CC2)nn1` (stereo partly shown) [P-236] are 23.3% and 269 nM.

On to `CC(C#N)Nc1cc(-n2ncc3cc(C#N)cnc32)ncc1-n1cc(C23CCC(CCN4CCN(c5ccc(C6CCC(=O)NC6=O)cc5)CC4)(CC2)CC3)nn1` (stereo not shown) [P-212], for which the “LVL THP1 HTRF YMIN” value is 1.5% and the DC50 came out at 3 nM. The matching figures for `C[C@H](C#N)Nc1cc(-n2ncc3cc(C#N)cnc32)ncc1-n1cc([C@H]2CC[C@](O)(CCN3CCN(c4ccc([C@@]5(C)CCC(=O)NC5=O)nc4)CC3)CC2)nn1` (single isomer, unassigned) [P-294]: 76.0% and 1230 nM. On to `CC1CN(CC[C@H]2CC[C@H](c3cn(-c4cnc(-n5ncc6cc(C#N)cnc65)cc4N[C@H](C)C#N)nn3)CC2)CCC1c1ccc([C@@]2(F)CCC(=O)NC2=O)cc1` (single isomer, unassigned) [P-333], for which the “LVL THP1 HTRF YMIN” value came out at 26.8% and the DC50 was 334 nM. With `N#Cc1cnc2c(cnn2-c2cc(OC3CC3)c(-n3cc([C@H]4CC[C@H](CCN5CCN(c6ccc(C7CCC(=O)NC7=O)cc6)CC5)CC4)nn3)cn2)c1` (stereo partly shown) [P-409], the “LVL THP1 HTRF YMIN” value is 8.3% and the DC50 is 82.5 nM.

In the case of `C[C@H](C#N)Nc1cc(-n2ncc3cc(C#N)cnc32)ncc1-c1cn(C2CCC(CCN3CCN(c4ccc(C5CCC(=O)NC5=O)cc4)CC3)CC2)nn1` (stereo partly shown) [P-195], the “LVL THP1 HTRF YMIN” value is given as 2.2%. In the case of `C[C@H](C#N)Nc1cc(-n2ncc3cc(C#N)cnc32)ncc1-n1cc([C@H]2CC[C@H](CCN3CCN(c4ccc(N5CCC(=O)NC5=O)cc4)CC3)CC2)nn1` [P-366], the “LVL THP1 HTRF YMIN” value came to 2.0% and the DC50 is 10 nM. With `C[C@H](C#N)Nc1cc(-n2ncc3cc(C#N)cnc32)ncc1-n1cc([C@H]2CC[C@H](CCN3CCC(c4ccc(N5CCC(=O)NC5=O)cc4)C3)CC2)nn1` (single isomer, unassigned) [P-497], the “LVL THP1 HTRF YMIN” value is recorded as 13.6% and the DC50 was found to be 239 nM.

Take `C[C@H](C#N)Nc1cc(Nc2ncc(C#N)cc2Cl)ncc1-n1cc([C@H]2CC[C@H](CCN3CCN(c4ccc(N5CCC(=O)NC5=O)cc4)[C@@H]4CCC[C@@H]43)CC2)nn1` (single isomer, unassigned) [P-506]: the “LVL THP1 HTRF YMIN” value was found to be 65.39% and the DC50 amounted to 1000 nM. `Cc1cc(N2CC[C@H]3[C@@H]2CCN3CC[C@H]2CC[C@H](c3cn(-c4cnc(-n5ncc6cc(C#N)cnc65)cc4N[C@H](C)C#N)nn3)CC2)ccc1N1CCC(=O)NC1=O` (single isomer, unassigned) [P-474]: the “LVL THP1 HTRF YMIN” value is reported as 5.0% and the DC50 came out at 70 nM. As to `C[C@H](C#N)Nc1cc(-n2ncc3cc(C#N)cnc32)ncc1-n1cc([C@H]2CC[C@H](CCN3CC(c4ccc(N5CCC(=O)NC5=O)cc4)C3)CC2)nn1` [P-477], the “LVL THP1 HTRF YMIN” value is 18.6% and the DC50 was found to be 263 nM.
